Data on 1 compound can be found in patent US20230101743A1, “SUBSTITUTED TRIAZINE COMPOUNDS AND USES THEREOF” (MUSC FOUNDATION FOR RESEARCH DEVELOPMENT, priority 2020, published 2023).

Assay type in all cases: cell-based, human
One experiment has as its system APOA. The experiment in a line: Secreted APOA ELISA in iPSC-derived hepatocytes. The settings on record: 2 μg/mL, 8 to 48 hours. The method, then: (§1) E. Human iPSC-derived hepatocytes were treated with 2 μg/mL of DL-1 from 8 to 48 hours. Albumin, APOPA, and APOB level in the culture medium were determined via ELISA. All secreted proteins were compared to non-treated cells. In FIG. 5, accumulated APOB in the medium from different time-point was measured and normalized to albumin level. In FIG. 6, APOA, APOB, and albumin in the medium at the indicated times were compared to control. […] Data are shown as mean±SEM of four replicates (n=4); *p<0.05, **p<0.01.
(§2) Human APOB level was determined via a commercial sandwich ELISA (3715-1H-6; Mabtech), and the signal was detected using the HRP-TMB system. The concentration of APOB was determined using a standard curve with four parameters logistic regression model. Human APOA level was determined via a commercial sandwich ELISA (3710-1H-6; Mabtech) following manufacture instruction. Human albumin levels in cell culture supernatants were measured by commercial ELISA (E88-129; Bethyl Laboratories) following manufactural instructions.

A further experiment has as its system Intracellular APOB. The experiment in a line: Intracellular APOB protein by immunoblot. The settings on record: 2 μg/mL, 24 hours. The method, then: G. Human iPSC-derived hepatocytes were treated with 2 μg/mL of DL-1 or equivalent concentration of DMSO for 24 hours. […] (A) APOB mRNA level was determined using real-time qPCR. (B) Intracellular APOB, LDLR, and HSP90 protein levels were determined via immunoblot. (C) Quantification of biological replicates of immunoblots on samples treated as in (B). Data are shown as mean±SEM of four replicates (n=4).
C. Human iPSC-derived hepatocytes (iPSC-Heps) were treated with 2 μg/mL of DL-1 or equivalent concentration of DMSO for 24 hours. In FIG. 7A, APOB mRNA level was determined using real-time qPCR. In FIG. 7B Intracellular APOB, LDLR, and HSP90 protein levels were determined via immunoblot; Quantification of biological replicates of immunoblots. […] In FIG. 12A LDL uptake assay was performed by pre-treating cells with 2 μg/mL of DL-1, 20 μM of Atorvastatin, and equivalent concentration of DMSO for 24 hours followed by 4 hours of pHrodo-LDL exposure; LDL endocytosis was determined and quantified by fluorescence image; data are shown as mean±SD of triplicates (n=3). […]
Immunoprecipitation of cell lysates was performed using protein G magnet beads (ThermoFisher) and anti-APOB (LDL20/17, Mabtech) antibodies. […] Expression levels were quantified via integrated intensity normalized by 5% of input of each sample. […] Signals were detected using HRP-conjugated secondary antibodies. […]

The next experiment relates to Albumin. Put plainly: Secreted albumin ELISA in iPSC-derived hepatocytes. The protocol:
D. Human iPSC-derived hepatocytes were treated with DL-1 with concentrations ranging from 0.0325 to 12 or 48 μg/mL for 24 hours. Pre-drug and Post-drug medium were collected for analysis. Albumin and APOB levels were determined via ELISA assay. All secreted proteins were compared to non-treated cells. […] Data are shown as mean±SEM of four replicates (n=4); * p<0.01.
as §1, §2
In general terms: ELISA stands for enzyme-linked immunosorbent assay.

Structures are written as SMILES.

Regarding `Sc1nc(S)nc(Nc2ccc(Nc3ccccc3)cc2)n1` (racemic) [DL-1, 6-{[4-(phenylamino)phenyl]amino}-1,3,5-triazine-2,4-dithiol], the “APOA level in culture medium, time course” value in the experiment with APOA is “without affecting albumin and APOA level”. Also, the “intracellular APOB protein level” value in the experiment with Intracellular APOB was “no impact on APOB mRNA and intracellular protein levels”. Besides, the “albumin level in culture medium, time course” value in the experiment with Albumin (2 μg/mL, 8 to 48 hours) is “without affecting albumin and APOA level”. Also, in the experiment with Albumin (0.0325 to 12 or 48 μg/mL, 24 hours), the “albumin level, dose-response” value was “without affecting albumin”.
